# From patent US8772276B2, “Alkyne benzotriazole derivatives” (Merck Sharp & Dohme Corp., priority 2011, dated 2014)
# Target: T1, recombinant human mGluR2 (Homo sapiens, UniProt Q14416)
# T1 construct: expressed in transfected cells
# Assay: FLIPR Ca2+ mobilization assay, mGluR2 potentiation
# Type: cell-based
# Settings: CHO dhfr- cells expressing human mGluR2 and Gα16, EC20 concentration of glutamate (900 nM)
# Protocol: Potencies are determined as follows. The compounds of the present invention may be tested in a fluorescence laser imaging plate reader (FLIPR) based assay. This assay is a common functional assay to monitor Ca^2+ mobilization in whole cells expressing recombinant receptor coupled with a promiscuous G-protein. CHO dhfr-cells stably expressing recombinant human mGluR2 and Gα16 loaded with Fluo-4 AM (Invitrogen, Carlsbad Calif.) are treated with varying concentrations of compounds and the Ca^2+ response is monitored on a FLIPR384 (Molecular Devices, Sunnydale Calif.) for agonist activity. The potentiation response is monitored after a subsequent addition of an EC20 concentration of glutamate (900 nM). The maximum calcium response at each concentration of compound for agonism or potentiation are plotted as dose responses curves fitted with a four parameters logistic equation giving EC50 and Hill coefficient using the iterative non linear curve fitting software program.
# T1 sequence (Q14416 19-872): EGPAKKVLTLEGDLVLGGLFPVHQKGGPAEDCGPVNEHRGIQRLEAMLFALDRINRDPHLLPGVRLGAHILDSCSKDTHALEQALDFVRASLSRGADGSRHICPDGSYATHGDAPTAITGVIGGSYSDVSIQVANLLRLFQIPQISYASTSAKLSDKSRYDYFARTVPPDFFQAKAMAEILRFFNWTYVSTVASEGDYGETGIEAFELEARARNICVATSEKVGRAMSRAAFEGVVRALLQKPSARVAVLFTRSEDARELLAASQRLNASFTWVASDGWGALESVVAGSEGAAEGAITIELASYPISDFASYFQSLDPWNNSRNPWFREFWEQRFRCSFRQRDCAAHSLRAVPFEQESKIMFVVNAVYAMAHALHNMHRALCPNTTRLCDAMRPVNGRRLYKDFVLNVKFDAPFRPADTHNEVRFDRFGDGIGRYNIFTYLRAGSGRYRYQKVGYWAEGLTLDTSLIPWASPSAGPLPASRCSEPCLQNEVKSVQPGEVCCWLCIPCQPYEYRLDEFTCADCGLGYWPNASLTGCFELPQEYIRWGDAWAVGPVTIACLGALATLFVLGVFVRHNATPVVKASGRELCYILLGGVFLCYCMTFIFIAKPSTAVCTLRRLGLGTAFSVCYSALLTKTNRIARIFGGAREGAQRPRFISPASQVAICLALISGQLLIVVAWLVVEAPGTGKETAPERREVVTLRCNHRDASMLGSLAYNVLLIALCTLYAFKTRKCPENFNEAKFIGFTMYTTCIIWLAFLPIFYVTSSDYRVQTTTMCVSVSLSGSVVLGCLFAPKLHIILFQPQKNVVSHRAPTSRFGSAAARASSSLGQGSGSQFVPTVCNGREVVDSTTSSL
row,EC50 [nM],SMILES
1,57,"OCc1cncc(C#Cc2ccc3c(nnn3CC3CC3)c2Cl)c1 [Example 22, (5-{[4-chloro-1-(cyclopropylmethyl)-1H-benzotriazol-5-yl]ethynyl}pyridin-3-yl)methanol]"
2,282,"C=CC#Cc1ccc2c(nnn2CC2CC2)c1Cl [Example 31, 5-but-3-en-1-yn-1-yl-4-chloro-1-(cyclopropylmethyl)-1H-benzotriazole]"
3,100,"CC(C)(C)Cn1nnc2c(Br)c(C#CC3CCN(C(=O)OC(C)(C)C)CC3)ccc21 [Example 1, tert-Butyl 4-{[4-bromo-1-(2,2-dimethylpropyl)-1H-benzotriazol-5-yl]ethynyl}piperidine-1-carboxylate]"
4,123,"CC(C)(C)Cn1nnc2c(Br)c(C#CC3CCN(CC(F)(F)F)CC3)ccc21 [Example 5, 4-bromo-1-(2,2-dimethylpropyl)-5-{[1-(2,2,2-trifluoroethyl)piperidin-4-yl]ethynyl}-1H-benzotriazole]"
5,388,"OCCC#Cc1ccc2c(nnn2CC2CC2)c1Cl [Example 12, 4-[4-chloro-1-(cyclopropylmethyl)-1H-benzotriazol-5-yl]but-3-yn-1-ol]"
6,42,"NC(=O)c1cncc(C#Cc2ccc3c(nnn3CC3CC3)c2Cl)c1 [Example 24, 5-{[4-chloro-1-(cyclopropylmethyl)-1H-benzotriazol-5-yl]ethynyl}pyridine-3-carboxamide]"
7,180,"OCCCC#Cc1ccc2c(nnn2CC2CC2)c1Cl [Example 14, 5-[4-chloro-1-(cyclopropylmethyl)-1H-benzotriazol-5-yl]pent-4-yn-1-ol]"
8,153,"CN1C(=O)CN(CCCC#Cc2ccc3c(nnn3CC3CC3)c2Cl)C1=O [Example 32, 1-{5-[4-chloro-1-(cyclopropylmethyl)-1H-benzotriazol-5-yl]pent-4-yn-1-yl}-3-methylimidazolidine-2,4-dione]"
9,414,CC(C)(C)OC(=O)N1CCC(F)(C#Cc2ccc3c(nnn3CC3CC3)c2Br)CC1 [Example 3]
10,50,"Cc1ncccc1C#Cc1ccc2c(nnn2CC2CC2)c1Cl [Example 16, 4-chloro-1-(cyclopropylmethyl)-5-[(2-methylpyridin-3-yl)ethynyl]-1H-benzotriazole]"
11,140,"Cc1ccc(C#Cc2ccc3c(nnn3CC3CC3)c2Cl)cn1 [Example 17, 4-chloro-1-(cyclopropylmethyl)-5-[(6-methylpyridin-3-yl)ethynyl]-1H-benzotriazole]"
12,57,"Cc1cncc(C#Cc2ccc3c(nnn3CC3CC3)c2Cl)c1 [Example 18, 4-chloro-1-(cyclopropylmethyl)-5-[(5-methylpyridin-3-yl)ethynyl]-1H-benzotriazole]"
13,2710,"CC(C)(C)Cn1nnc2c(Br)c(C#CC3CCNCC3)ccc21 [Example 2, 4-bromo-1-(2,2-dimethylpropyl)-5-(piperidin-4-ylethynyl)-1H-benzotriazole]"
14,1220,"FC1(C#Cc2ccc3c(nnn3CC3CC3)c2Br)CCNCC1 [Example 4, 4-bromo-1-(cyclopropylmethyl)-5-[(4-fluoropiperidin-4-yl)ethynyl]-1H-benzotriazole]"
15,34,"FC(F)(F)c1c(C#Cc2ccccc2)ccc2c1nnn2CC1CC1 [Example 34, 1-(cyclopropylmethyl)-5-(phenylethynyl)-4-(trifluoromethyl)-1H-benzotriazole]"
16,85,"Clc1c(C#Cc2ccccn2)ccc2c1nnn2CC1CC1 [Example 9, 4-chloro-1-(cyclopropylmethyl)-5-(pyridin-2-ylethynyl)-1H-benzotriazole]"
17,292,"Clc1cncc(C#Cc2ccc3c(nnn3CC3CC3)c2Cl)c1 [Example 19, 4-chloro-5-[(5-chloropyridin-3-yl)ethynyl]-1-(cyclopropylmethyl)-1H-benzotriazole]"
18,299,"Clc1cc(C#Cc2ccc3c(nnn3CC3CC3)c2Cl)ccn1 [Example 26, 4-chloro-5-[(2-chloropyridin-4-yl)ethynyl]-1-(cyclopropylmethyl)-1H-benzotriazole]"

row,EC50 [nM],SMILES
1,56,"O=Cc1cncc(C#Cc2ccc3c(nnn3CC3CC3)c2Cl)c1 [Example 15, 5-{[4-chloro-1-(cyclopropylmethyl)-1H-benzotriazol-5-yl]ethynyl}pyridine-3-carbaldehyde]"
2,98,"Nc1cncc(C#Cc2ccc3c(nnn3CC3CC3)c2Cl)c1 [Example 23, 5-{[4-chloro-1-(cyclopropylmethyl)-1H-benzotriazol-5-yl]ethynyl}pyridin-3-amine]"
3,415,"CN1C(=O)CN(CC#Cc2ccc3c(nnn3CC3CC3)c2Cl)C1=O [Example 30, 1-{3-[4-Chloro-1-(cyclopropylmethyl)-1H-benzotriazol-5-yl]prop-2-yn-1-yl}-3-methylimidazolidine-2,4-dione]"
4,50,"Cc1ccncc1C#Cc1ccc2c(nnn2CC2CC2)c1Cl [Example 6, 4-Chloro-1-(cyclopropylmethyl)-5-[(4-methylpyridin-3-yl)ethynyl]-1H-benzotriazole]"
5,203,"Clc1c(C#Cc2ccnnc2)ccc2c1nnn2CC1CC1 [Example 11, 4-chloro-1-(cyclopropylmethyl)-5-(pyridazin-4-ylethynyl)-1H-benzotriazole]"
6,34,"Clc1c(C#Cc2cccnc2)ccc2c1nnn2CC1CC1 [Example 7, 4-chloro-1-(cyclopropylmethyl)-5-(pyridin-3-ylethynyl)-1H-benzotriazole]"
7,12,"FC(F)(F)c1c(C#Cc2ccncc2)ccc2c1nnn2CC1CC1 [Example 35, 1-(cyclopropylmethyl)-5-(pyridin-4-ylethynyl)-4-(trifluoromethyl)-1H-benzotriazole]"
8,77,"Fc1cc(C#Cc2ccc3c(nnn3CC3CC3)c2Cl)ccn1 [Example 25, 4-chloro-1-(cyclopropylmethyl)-5-[(2-fluoropyridin-4-yl)ethynyl]-1H-benzotriazole]"
9,43,"Cc1cc(C#Cc2ccc3c(nnn3CC3CC3)c2Cl)ccn1 [Example 27, 4-chloro-1-(cyclopropylmethyl)-5-[(2-methylpyridin-4-yl)ethynyl]-1H-benzotriazole]"
10,31,"Nc1cc(C#Cc2ccc3c(nnn3CC3CC3)c2Cl)ccn1 [Example 29, 4-{[4-chloro-1-(cyclopropylmethyl)-1H-benzotriazol-5-yl]ethynyl}pyridin-2-amine]"
11,4.8,"FC(F)(F)c1c(C#Cc2cccnc2)ccc2c1nnn2CC1CC1 [Example 33, 1-(Cyclopropylmethyl)-5-(pyridin-3-ylethynyl)-4-(trifluoromethyl)-1H-benzotriazole]"
12,50,"COc1cncc(C#Cc2ccc3c(nnn3CC3CC3)c2Cl)c1 [Example 20, 4-chloro-1-(cyclopropylmethyl)-5-[(5-methoxypyridin-3-yl)ethynyl]-1H-benzotriazole]"
13,576,"OCC#Cc1ccc2c(nnn2CC2CC2)c1Cl [Example 13, 3-[4-chloro-1-(cyclopropylmethyl)-1H-benzotriazol-5-yl]prop-2-yn-1-ol]"
14,64,"Clc1c(C#Cc2ccncc2)ccc2c1nnn2CC1CC1 [Example 8, 4-chloro-1-(cyclopropylmethyl)-5-(pyridin-4-ylethynyl)-1H-benzotriazole]"
15,227,"COc1cc(C#Cc2ccc3c(nnn3CC3CC3)c2Cl)ccn1 [Example 28, 4-chloro-1-(cyclopropylmethyl)-5-[(2-methoxypyridin-4-yl)ethynyl]-1H-benzotriazole]"
16,76,"Fc1cncc(C#Cc2ccc3c(nnn3CC3CC3)c2Cl)c1 [Example 21, 4-chloro-1-(cyclopropylmethyl)-5-[(5-fluoropyridin-3-yl)ethynyl]-1H-benzotriazole]"
17,80,"Clc1c(C#Cc2cnccn2)ccc2c1nnn2CC1CC1 [Example 10, 4-chloro-1-(cyclopropylmethyl)-5-(pyrazin-2-ylethynyl)-1H-benzotriazole]"
